The results in this text go back to patent publication US11246929B2, “Combination of a protein kinase inhibitor and an additional chemotherapeutic agent” (Merck Patent GmbH, priority 2016, dated 2022).

In data set [1] the test system is Capan-1 (pancreas, adeno) xenograft. Put plainly: Xenograft, fractionated IR plus Compound 1, time to TV400%. In kind it is in vivo, mouse. On the procedure: (§1) The therapeutic relevance of DNA-PK inhibition by Compound 1 was investigated in vivo in combination with ionizing radiation (IR), a clinically established DSB-inducing treatment. Compound 1 was tested for activity in six xenograft mouse models of human cancer. The models were chosen from different cancer indications (colon, lung, head and neck, pancreatic), and histological subtypes (adeno, squamous, large cell). Ionizing radiation was administered using a fractionated schedule of 2 Gy per day administered over five consecutive days (total radiation dose=10 Gy). Compound 1 was given orally 10 min prior to each fraction of radiation (ONC397-1-2AZ, ONC397-1-3AZ, ONC397-1-4AZ, ONC397-1-5AZ, ONC397-1-8AZ).
(§2) Radiotherapy enhancing effect of Compound 1 was quantified across the tested models by the time to reaching 400% initial volume for the 150 mg/kg study arms. The resulting Kaplan-Meier plots were compared by the log-rank test.

Data set [2] concerns HCT116 (colon, adeno) xenograft. The data set is described as above. It is filed as in vivo, mouse. On the procedure:
as §1, §2

For a further data set, the system named is NCI-H460 xenograft. In kind it is in vivo.
The subject of data set [3] is myeloid and lymphoid cells. Put plainly: Hematology study, blood cell counts in immunocompetent mice. In kind it is in vivo, mouse. The settings on record: addition of Compound 1 to etoposide/cisplatin. The text has this: For efficacy xenograft study 1014-1-58/BKU00105 female CD1 nu/nu mice [internal Batch ID 04108; Charles River Laboratories, Sulzfeld, Germany], aged 6-8 weeks, were used. For the hematology study 1015-1-3/BKU00106 immunocompetent female CD1 mice [internal Batch ID1406; Janvier Labs, Genest-Saint-Isle, France], aged 12 weeks were used. The mice were acclimatized to the housing conditions for 1 week. They were kept in groups of 10 in polysulfone cages Type III (42.5×26.6×15.5 cm; Techniplast, Hohenpeissenberg). Bedding consisted of aspen chips (E. Becker, Castrop-Rauxel). Room temperature was 24+/−2° C. and relative humidity was 50+/−10% at 15 air changes per hour. Drinking water (provided ad libitum) was supplemented with 1 mg/mL Chlorine and was adjusted to a pH of 6.5 with HCl. […]
The hematology data were evaluated by RM-ANOVA and Bonferroni multiple comparisons post test comparing the blood cell counts of the respective combination groups to the blood cell counts of the SoC only treatment group.
In parallel with the antitumor effect of the etoposide/cisplatin/Compound 1 combination, the effect on myeloid and lymphoid cells was investigated in immunocompetent mice (refer to ONC1015-1-3AZ). […] Blood cell count was determined under treatment (days 5 and 11) and during recovery (days 18 and 24).

Another data set concerns the target T1, DNA-PK (p-Ser2056) (Homo sapiens, UniProt P78527).
T1 construct: from tissue; host or cells: human tumor xenografts (FaDu, HCT116, WM164) grown in mice
Put plainly: IR-induced DNA-PK phosphorylation in tumor tissue, MSD assay, WM164 xenograft. It is filed as in vivo. The text has this: Following the induction of DSB by radiation therapy or other DNA damaging agents, the catalytic subunit of DNA-PK (DNA-PKc) is autophosphorylated at several serine and threonine residues. Ser2056 is one of the most prominent and best studied autophosphorylation sites. Because Ser2056 phosphorylation (p-Ser2056) correlated well with DNA-PK activation state it was chosen as the pharmacodynamics (PD) biomarker. Two different assay formats were established to measure p-Ser2056 in tumor tissue: ELISA and MSD format. In order to detect sequence reliable signal, IR was used at 50 Gy for the ELISA assay and 10 Gy for the more sensitive MSD assay.

The target of another data set is DNA-PK (Homo sapiens, UniProt P78527). Put plainly: crystallographic and enzyme kinetics studies. In kind it is biochemical.
Data set [4] deals with 81 cancer cell lines representing 17 tumor tissue types. Put plainly: Single agent activity, panel of 81 cancer cell lines plus PBMC. It is filed as cell-based. The settings on record: for GI50: PBMC.
Data set [5] deals with resting, non-proliferating PBMC. Described as above. It is filed as cell-based.
Another data set relates to HEPG2. Put plainly: cells. The settings on record: Homo sapiens, HepG2, read-out: GI50 of etoposide (±Compound 1). On the procedure:
(§3) 90 μl of cells, after a 48-hour pre-growth period, were treated by mixing with 10 μl of the compound-containing media (resulting in a final DMSO concentration of 0.1%).
(§4) This is the drug concentration causing a 50% reduction compared to the net protein increase in control cells during the drug incubation period. In other words, G150 is IC50 corrected for time zero. […] TGI was calculated from Ti=Tz. […] It was calculated as 100×[(Ti−Tz)/Tz]=−50.

Another data set has as its system MT3. Put plainly: cells. The settings on record: MT-3, read-out: GI50 of etoposide (±Compound 1). The protocol: as §3, §4
For the next data set, the system named is PLCPRF5. Put plainly: cells. The settings on record: Homo sapiens, PLC-PRF-5, read-out: GI50 of etoposide (±Compound 1). The protocol:
as §3, §4

Another data set has as its system SKHEP1. Put plainly: cells. The settings on record: Homo sapiens, SK-HEP1, read-out: GI50 of etoposide (±Compound 1). The protocol:
as §3, §4

A further data set relates to DLD1. Put plainly: cells. The settings on record: Homo sapiens, DLD-1, read-out: GI50 of etoposide (±Compound 1).
In the next data set the test system is HCT15. Put plainly: cells. The settings on record: Homo sapiens, HCT-15, read-out: GI50 of etoposide (±Compound 1).
Another data set concerns SKNSH. Put plainly: SRB growth inhibition, 93 cell lines panel. The settings on record: Homo sapiens, SK-N-SH, read-out: GI50 of etoposide (±Compound 1).
In the next data set the test system is 1587MG. Put plainly: SRB growth inhibition, 93 cell lines panel. The settings on record: read-out: GI50 of etoposide (±Compound 1).
[6] abbreviates: IR 10 Gy (5 x 2 Gy) + Compound 1 150 mg/kg po.
[7] abbreviates: IR 10 Gy (5 x 2 Gy) + Compound 1 150 mg/kg po 10 min prior to each fraction.

Where two headings read alike, the source gives them in different places.

Procedure for 1587MG: (§5) Cell growth and treatment were performed in 96-well microtitre plates CELLSTAR® (Greiner Bio-One, Germany). Cells harvested from exponential phase cultures by trypsinization or by splitting (in the case of cells growing in suspension) were plated in 90 μl of media at optimal seeding densities. The optimal seeding density for each cell line was determined to ensure exponential growth for the duration of the experiment. All cells growing without anticancer agents were sub-confluent by the end of the treatment, as determined by visual inspection. […] The cells were allowed to grow at 37° C. for 72 (or 120) hours. […] Cells were fixed to the surface by addition of 10% TCA (for adherent growing cells) or 50% TCA (for semi-adherent growing cell or cells growing in suspension). After an hour of incubation at 4° C. plates were washed twice with 200 μl of deionized water and dried. Cells were then stained with 100 μl of 0.04% w/v SRB. The plates were incubated at room temperature for at least 30 min and washed six times with 1% acetic acid to remove unbound stain. […] Using these measurements, cellular responses can be calculated for incomplete inhibition of cell growth (GI), complete inhibition of cell growth (TGI) and net loss of cells (LC) due to compound activity. […] TGI was calculated from Ti=Tz.
Procedure for DLD1: (§6) Cell growth and treatment were performed in 96-well microtitre plates CELLSTAR® (Greiner Bio-One, Germany). Cells harvested from exponential phase cultures by trypsinization or by splitting (in the case of cells growing in suspension) were plated in 90 μl of media at optimal seeding densities. The optimal seeding density for each cell line was determined to ensure exponential growth for the duration of the experiment. All cells growing without anticancer agents were sub-confluent by the end of the treatment, as determined by visual inspection.
(§7) 90 μl of cells, after a 48-hour pre-growth period, were treated by mixing with 10 μl of the compound-containing media (resulting in a final DMSO concentration of 0.1%). The cells were allowed to grow at 37° C. for 72 (or 120) hours.
(§8) Cells were fixed to the surface by addition of 10% TCA (for adherent growing cells) or 50% TCA (for semi-adherent growing cell or cells growing in suspension). After an hour of incubation at 4° C. plates were washed twice with 200 μl of deionized water and dried. Cells were then stained with 100 μl of 0.04% w/v SRB. […]
(§9) Using these measurements, cellular responses can be calculated for incomplete inhibition of cell growth (GI), complete inhibition of cell growth (TGI) and net loss of cells (LC) due to compound activity. […] TGI was calculated from Ti=Tz. […] It was calculated as 100×[(Ti−Tz)/Tz]=−50.
Procedure for HCT15: as §6, §7, §8, §9
Source text for NCI-H460 xenograft: The NCI-H460 was chosen as a model relatively insensitive to IR treatment.
Procedure for SKNSH: as §5

What is called GI50 is the concentration that inhibits growth by half. For the compound `COc1ccc([C@@H](O)c2cc(-c3ncnc4cc(N5CCOCC5)ccc34)c(F)cc2Cl)nn1` [Compound 1, (S)-[2-chloro-4-fluoro-5-(7-morpholin-4-yl-quinazolin-4-yl)-phenyl]-(6-methoxy-pyridazin-3-yl)-methanol], the “Enhancement Ratio [combi/IR only]” value in data set [1] (setting [6]) stood at 2; in data set [2] (setting [6]) it was 1.5. Further, the “median time to TV400% Combi” value in data set [1] (setting [7]) was determined as 132 days; in [2] (setting [7]), 46 days. The tumor response entry in the data set with NCI-H460 xenograft (6 weeks IR (60 Gy total) + Compound 1 25 and 50 mg/kg po) was “regressed during the treatment and observation period up to approximately day 90”. The “tumor volume vs starting volume” value with NCI-H460 xenograft (6 weeks IR + 50 mg/kg, 42 days of treatment plus 68 days observation) is listed as “did not exceed their starting volume”. The tolerability entry with NCI-H460 xenograft (6 weeks IR + Compound 1) was “generally well tolerated”. Besides, the “blood cell reduction and recovery” value in data set [3] was “did not significantly affect blood cell reduction nor the recovery phase”. Further, on DNA-PK (p-Ser2056) (WM164, MSD assay, IR 10 Gy), the “inhibition of IR-induced DNA-PK phosphorylation (Ser2056)” value is “Dose-dependent inhibition”. Moreover, the “DNA-PK autophosphorylation in tumor tissue” value on DNA-PK (p-Ser2056) (WM164, 25 mg/kg 10 minutes prior to 10 Gy IR) was “inhibition of DNA-PK autophosphorylation”. For the same compound, the “inhibition of DNA-PK, mode” value on DNA-PK is “potent and selective ATP-competitive inhibitor”. The activity range result in data set [4] was “more than 20 fold”. The GI50 in data set [4] (in a set of cell lines, read-out: activity (GI50), lower end of range) is 500 nM; in data set [4] (read-out: activity (GI50), upper end of range) it was above 10000 nM. In addition, the “activity in resting PBMC” value in data set [5] is “No activity”.

With `COc1cc([C@@H]2c3cc4c(cc3[C@@H](O[C@@H]3O[C@@H]5CO[C@@H](C)O[C@H]5[C@H](O)[C@H]3O)[C@H]3COC(=O)[C@H]23)OCO4)cc(OC)c1O` [Etoposide], the activity range result in data set [4] was “more than 1000 fold”. In data set [5], the “activity in resting PBMC” value was “no activity”. The GI50 with HEPG2 came out at 806 nM; in the data set with MT3, 609 nM; in the data set with PLCPRF5, 6250 nM; in the data set on SKHEP1, 83 nM; with DLD1, 1350 nM; in the data set with HCT15, 1470 nM. In addition, the GI50 in the data set with SKNSH was determined as 265 nM; in the data set on 1587MG, 2400 nM.
